A short description of data set [1]: Solubility assay at pH 7 and in FaSSIF. The format is physicochemical. The note with it: thermodynamic from solid. Here is the method:
A number of compounds of the present invention were assayed in a solubility assay at pH 7 and in fasted state simulated intestinal fluid (FaSSIF).
Solubility of the compounds was determined by suspending about 0.3 to 1.0 mg of drug substance in 0.1 mL of phosphate buffer at pH 7 and respectively FaSSIF.
Buffer pH 7 was obtained from MERCK as Tritisol® Phosphate Buffer. The Medium to Simulate the Fasted State Upper Small Intestine (Fasted State Simulated Intestinal Fluid) or FaSSIF was developed according to J. Dressmann publication Jantratid Ekarat; Janssen Niels; Reppas Christos; Dressman Jennifer B Dissolution media simulating conditions in the proximal human gastrointestinal tract: an update. Pharmaceutical research (2008), 25(7), 1663-76.
Composition from the FaSSIF is described in the following Table 3.
The suspensions or solutions were stirred over night at room temperature. After separation of the un-dissolved part by filtration (centrifugation using 0.45 μm PVDF or PTFE filters), the solutions were if necessary, diluted with acetonitrile to obtain concentrations below 1.0 mg/mL prior to UPLC analysis. Samples were then analyzed by UPLC to get the concentrations level of compound in the different media. Prior to analysis a method has been developed for each compound with an according calibration.
UPLC parameters: Column Aquity50*2.1 mm C18 1.7ym; Column temperature: 40° C.; mobile phase A: water MilliQ+0.1% TFA and B acetonitrile, gradient grade, +0.1% TFA.

The subject of data set [2] is MET-amplified gastric cancer cell line GTL-16. Put plainly: GTL-16 proliferation assay (MTS). It counts as cell-based. Particulars: Homo sapiens, GTL-16 cells, 72 h incubation. The procedure, abridged:
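GTL-16 cells were seeded at 3000/well in DMEM with 10% FCS. After 24 h they were treated in triplicate with a 10-point, 3-fold dilution series ([…]; DMSO-only control) for 72 h. Viable cells were measured by MTS, with OD 490 nm read after 30 min.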

[3] abbreviates: FaSSIF (fasted state simulated intestinal fluid), fassif, fasted state simulated intestinal fluid, stirred over night at room temperature, read-out: Solubility FaSSIF.
[4] abbreviates: aqueous buffer, phosphate buffer pH 7, stirred over night at room temperature, read-out: Solubility Buffer pH 7.

Converted amounts (≈) assume the structure as drawn. Like-named read-outs stand apart in the source and are kept apart here.

Broadly, the solubility is the concentration that dissolves in the medium under given conditions. Usually IC50 stands for the midpoint of a concentration-inhibition curve.

In the case of `CC(=O)N1CCN(c2ccc3ncc([C@@H](C)c4c(F)cc5ncccc5c4F)n3n2)CC1` [Example 11, 1-(4-{3-[(S)-1-(5,7-Difluoro-quinolin-6-yl)-ethyl]-imidazo[1,2-b]pyridazin-6-yl}-piperazin-1-yl)ethanone], the solubility in data set [1] (setting [3]) was 1350 µg/mL (≈ 3100 µM); in data set [1] (setting [4]) it was 32 µg/mL (≈ 73.3 µM). The compound also had an IC50 in data set [2] of 7.2 nM.
Regarding `C[C@@H](c1c(F)cc2ncccc2c1F)c1cnc2ccc(N3CCN(C)C(=O)C3)nn12` [Example 2, 4-{3-[(S)-1-(5,7-Difluoro-quinolin-6-yl)-ethyl]-imidazo[1,2-b]pyridazin-6-yl}-1-methyl-piperazin-2-one], the figures for the solubility in data set [1] (setting [3]) and in data set [1] (setting [4]) were 289 µg/mL (≈ 684 µM) and 29 µg/mL (≈ 68.6 µM), respectively. In data set [2], this compound returned an IC50 of 1.7 nM.
The corresponding values for `C[C@@H](c1cc2cnn(C)c2cc1F)c1cnc2ccc(N3CCNC(=O)C3)nn12` [Example 28, 4-{3-[(S)-1-(6-Fluoro-1-methyl-1H-indazol-5-yl)-ethyl]-imidazo[1,2-b]pyridazin-6-yl}-piperazin-2-one] are 374 µg/mL (≈ 951 µM), 117 µg/mL (≈ 297 µM) and 26 nM.
The like results for `C[C@@H](c1c(F)cc2ncccc2c1F)c1cnc2ccc(N3CCNC(=O)C3)nn12` (single isomer, unassigned) [Example 5] were, in that order, 164 µg/mL (≈ 402 µM), 91 µg/mL (≈ 223 µM) and 3.6 nM.
The like results for `C[C@@H](c1c(F)cc2ncccc2c1F)c1cnc2ccc(N3CCNCC3)nn12` [Example 7, 5,7-Difluoro-6-[(S)-1-(6-piperazin-1-yl-imidazo[1,2-b]pyridazin-3-yl)-ethyl]-quinoline] were, in that order, 172 µg/mL (≈ 436 µM), 248 µg/mL (≈ 629 µM) and 6.4 nM.

Source of the values: patent publication US8389526B2, “3-heteroarylmethyl-imidazo[1,2-b]pyridazin-6-yl derivatives” (Novartis AG, priority 2009, dated 2013).
